Experimental data taken from US20160223554A1, “METHODS FOR DIAGNOSIS, PROGNOSIS AND METHODS OF TREATMENT” (priority 2011, published 2016).
Read-outs that look alike come from different tables or passages of the source.

Key:
AML blasts [1] = assay: DNA damage response (p-H2AX, p-Chk2) to chemotherapeutics in primary AML samples (Example 20); type: cell-based, human; conditions: for timing of induced DNA damage (pH2AX) relative to apoptosis: primary AML samples; for DDR: pH2AX, 48 hour treatment
Experimental: (§1) Cryopreserved peripheral blood (PBMC) or bone marrow (BMMC) mononuclear cells were obtained from patients with a new diagnosis of AML treated at British Columbia Cancer Agency or Lucile Packard Children's Hospital at Stanford University. All patients provided informed consent for research purposes. Samples were processed (thawed, modulated, fixed, permeabilized, and incubated with antibodies to both surface and intracellular proteins) as previously described (Kornblau, Minden et al., Dynamic single-cell network profiles in acute myelogenous leukemia are associated with patient response to standard induction therapy, 2010, Journal/Clin Cancer Res, 16, 14, 3721-3733; Rosen, Minden et al., Functional characterization of FLT3 receptor signaling deregulation in acute myeloid leukemia by single cell network profiling (SCNP), 2010, Journal/PLoS One, 5, 10, e13543). In this study, cellular DNA damage repair (DDR) and apoptosis were measured simultaneously in AML blasts after exposure to chemotherapeutic agents. Antibodies against phosphorylated (p)-H2AX or p-Chk2 were used to measure the DDR to DSB, while simultaneous measurements of cleaved PARP (c-PARP) and amine aqua viability dye were used to quantify apoptosis and cell death. Chemotherapeutics included Ara-C/Dauno (the two drugs currently used in standard AML induction therapy), Gemtuzumab Ozogamicin (GO), and three other agents currently being evaluated in AML clinical trials [Decitabine (DEC), 5-azacytidine (AZA) and Clofarabine (CLO)]. […] Drug-specific incubation times were chosen to analyze both DDR and apoptosis readouts: Ara-C/Dauno (24 hours), GO, CLO, AZA, DEC (48 hours). […] Similarly, apoptosis responses were not observed for DEC until 48 hours and were higher for AZA at 48 hours (data not shown). PI3Kinase/Akt and Raf/Ras pathway activities were assessed using stem cell factor (SCF) induced p-Akt and p-Erk readouts. Data was acquired on an LSRII flow cytometer and leukemic cells were identified by CD45 versus right-angle light-scatter. Metrics for DDR (Log2Fold) and induced apoptosis have been described previously (Rosen, Putta et al., Distinct patterns of DNA damage response and apoptosis correlate with Jak/Stat and PI3kinase response profiles in human acute myelogenous leukemia, 2010, Journal/PLoS One, 5, 8, e12405).

AML blasts [2] = assay: In vitro drug-induced apoptosis (c-PARP, amine aqua) in primary AML samples (Example 20); type: cell-based, human; conditions: for cells induced to undergo apoptosis: sample COG-06 (MDR+); for cells induced to undergo apoptosis / cells undergoing apoptosis / apoptotic cells: 48 hours, CLO 0.25 μM, AZA 2.5 μM, DEC 0.625 μM; for Apo: 48 hour treatment; for cells undergoing apoptosis: sample COG-07
Experimental: as §1

[3] = cited from earlier work
AML blasts [4] = assay: SCNP phospho-flow signaling nodes in AML PBMC (Example 2, Study No. 1); type: cell-based, human; conditions: for Mean Value of CRs: CR patients; for Mean Value of CRs / Mean Value of NRs: Study No. 1; for Mean Value of NRs: NR patients
Experimental: Frozen cells are thawed in a 37° C. water bath and gently resuspended in the vial and transferred to the 15 mL conical tube. The 15 mL tube is centrifuged at 930 RPM (200×g) for 8 minutes at room temperature. The supernatant is aspirated and the pellet is gently resuspended in 1 mL media A. The cell suspension is filtered through a 70 um cell strainer into a new 15 mL tube. The cell strainer is rinsed with 1 mL media A and another 12 ml of media A into the 15 mL tube. The cells are mixed into an even suspension. A 20 μL aliquot is immediately removed into a 96-well plate containing 180 μL PBS+4% FBS+CD45 Alexa 700+PI to determine cell count and viability post spin. After the determination, the 15 mL tubes are centrifuged at 930 RPM (200×g) for 8 minutes at room temperature. The supernatant is aspirated and the cell pellet is gently resuspended in 4 mL PBS+4 μL Amine Aqua and incubated for 15 min in a 37° C. incubator. 10 mL RPMI+1% FBS is added to the cell suspension and the tube is inverted to mix the cells. The 15 mL tubes are centrifuged at 930 RPM (200×g) for 8 minutes at room temperature. The cells are resuspended in Media A at the desired cell concentration (1.25×10^6/mL). For samples with low numbers of cells (<18.5×10^6), the cells are resuspended in up to 15 mL media. For samples with high numbers of cells (>18.5×10^6), the volume is raised to 10 mL with media A and the desired volume is transferred to a new 15 mL tube, and the cell concentration is adjusted to 1.25×10^6 cells/ml. 1.6 mL of the above cell suspension (concentration at 1.25×10^6 cells/ml) is transferred into wells of a multi-well plate. From this plate, 80 ul is dispensed into each well of a subsequent plate. The plates are covered with a lid (Nunc) and placed in a 37° C. incubator for 2 hours to rest.
A concentration for each stimulant that is five folds more (5×) than the final concentration is prepared using Media A as diluent. 5× stimuli are arrayed into wells of a standard 96 well v-bottom plate that correspond to the wells on the plate with cells to be stimulated.
Adding the stimulant: The cell plate(s) are taken out of the incubator and placed in a 37° C. water bath next to the pipette apparatus. The cell plate is taken from the water bath and gently swirled to resuspend any settled cells. With pipettor, the stimulant is dispensed into the cell plate and vortexed at “7” for 5 seconds. The deep well plate is put back into the water bath.
The plate is covered with foil sealer and incubated in a 37° C. water bath for 10 minutes. The plate is spun for 6 minutes at 2000 rpm at room temperature. The cells are aspirated using a 96 well plate aspirator (VP Scientific). The plate is vortexed to resuspend cell pellets in the residual volume. The pellet is ensured to be dispersed before the Methanol step (see cell permeabilization) or clumping will occur.
Cell Permeabilization: Permeability agent, for example methanol, is added slowly and while the plate is vortexing. To do this, the cell plate is placed on titer plate shaker and made sure it is secure. The plate is set to shake using the highest setting. A pipetter is used to add 0.6 mls of 100% methanol to the plate wells. The plate(s) are put on ice until this step has been completed for all plates. Plates are covered with a foil seal using the plate roller to achieve a tight fit. At this stage the plates can be stored at −80° C.
Cells are thawed if frozen. Cells are pelleted at 2000 rpm 5 minutes. Supernatant is aspirated with vacuum aspirator. Plate is vortexed on a “plate vortex” for 5-10 seconds. Cells are washed with 1 mL FACS buffer. Repeat the spin, aspirate and vortex steps as above. 50 μL of FACS/stain buffer with the desired, previously optimized, antibody cocktail is added to two rows of cells at a time and agitate the plate. The plate is covered and incubated in a shaker for 30 minutes at room temperature (RT). During this incubation, the compensation plate is prepared.

AML blasts [5] = assay: SCNP signaling and apoptosis nodes in AML BMMC (Example 4, Study No. 2); type: cell-based, human
[6] = Fold metric, Study No. 1, CRp patient included in NR group
[7] = Total Phospho metric, Study No. 1, CRp patient included in NR group
[8] = read-out p-Stat3, metric TotalPhospho
[9] = Fold metric, all patients, Study No. 2
[10] = Study No.2, patients less than 60 years old
[11] = Study No.2, patients with De Novo AML

Nc1nc(Cl)nc2c1ncn2[C@@H]1O[C@H](CO)[C@@H](O)[C@@H]1F [CLO]
timing of induced DNA damage (pH2AX) relative to apoptosis (AML blasts [1]): before apoptosis
DNA damage response (DDR) (AML blasts [1]; sample COG-06): robust DDR
DDR (AML blasts [1]; sample COG-06): + (For DDR, “+” signifies Log2Fold >0.5 (in live cPARP- cells).)
DNA damage response (DDR) (AML blasts [1]; sample COG-07): defective DDR
DNA damage response (DDR) (AML blasts [1]; sample COG-09): robust DDR
DDR (AML blasts [1]; sample COG-09): + (For DDR, “+” signifies Log2Fold >0.5 (in live cPARP- cells).)
cells induced to undergo apoptosis (AML blasts [2]): 81%
Apo (AML blasts [2]; sample COG-06): + (For Apo, “+” signifies induced apoptosis >50%.)
cells undergoing apoptosis (AML blasts [2]): 20%
apoptotic cells (AML blasts [2]; sample COG-09): 13%

Nc1ccn([C@@H]2O[C@H](CO)[C@@H](O)[C@@H]2O)c(=O)n1 [Cytarabine, 1β-arabinofuranosylcytosine]
peak plasma concentration ([3]; high dose Cytarabine, 3 g/m2): 2 µM
peak plasma concentration ([3]; standard dose of Cytarabine, 100 mg/m2): approximately 40 nM

Nc1ncn([C@@H]2O[C@H](CO)[C@@H](O)[C@H]2O)c(=O)n1 [AZA, 5-azacytidine]
timing of induced DNA damage (pH2AX) relative to apoptosis (AML blasts [1]): coincident with apoptosis
cells induced to undergo apoptosis (AML blasts [2]): 77.5%
Apo (AML blasts [2]; sample COG-06): + (For Apo, “+” signifies induced apoptosis >50%.)
cells undergoing apoptosis (AML blasts [2]): 32%
Apo (AML blasts [2]; sample COG-09): + (For Apo, “+” signifies induced apoptosis >50%.)
apoptotic cells (AML blasts [2]; sample COG-09): 57%

Nc1ncn([C@H]2C[C@H](O)[C@@H](CO)O2)c(=O)n1 [DEC]
cells induced to undergo apoptosis (AML blasts [2]): 55.8%
Apo (AML blasts [2]; sample COG-06): + (For Apo, “+” signifies induced apoptosis >50%.)
cells undergoing apoptosis (AML blasts [2]): 29%
apoptotic cells (AML blasts [2]; sample COG-09): 5%

COc1cccc2c1C(=O)c1c(O)c3c(c(O)c1C2=O)C[C@@](O)(C(C)=O)C[C@@H]3O[C@H]1C[C@H](N)[C@H](O)[C@H](C)O1 [Daunorubicin]
peak plasma concentration ([3]; Daunorubicin at 25 mg/m2): 50 ng/mL
peak plasma concentration ([3]; Daunorubicin at 50 mg/m2): 200 ng/mL

GO: recombinant humanized IgG4, kappa antibody conjugated with a cytotoxic antitumor antibiotic, calicheamicin
timing of induced DNA damage (pH2AX) relative to apoptosis (AML blasts [1]): before apoptosis

C/C=C/C[C@@H](C)C(=O)[C@H]1C(=O)N[C@@H](C(C)C)C(=O)N(C)CC(=O)N(C)[C@@H](CC(C)C)C(=O)N[C@@H](C(C)C)C(=O)N(C)[C@@H](CC(C)C)C(=O)N[C@@H](C)C(=O)N[C@H](C)C(=O)N(C)[C@@H](CC(C)C)C(=O)N(C)[C@@H](CC(C)C)C(=O)N(C)[C@@H](C(C)C)C(=O)N1C [PSC833]
effect of co-treatment on GO-induced apoptosis (AML blasts [2]; sample COG-06, resistant to Ara-C/Dauno and GO, co-treatment with GO): substantially sensitized the leukemic cells to GO-induced apoptosis

B1: IFNg: cytokine modulator of Jak/Stat pathway (protein, UniProt P01579 24-161, looked up)
Interferon gamma: QDPYVKEAENLKKYFNAGHSDVADNGTLFLGILKNWKEESDRKIMQSQIVSFYFKLFKNFKDDQSIQKSVETIKEDMNVKFFNSNKKKRDDFEKLTNYSVTDLNVQRKAIHELIQVMAELSPAAKTGKRKRSQMLFRG
Mean Value of CRs, p-Stat1 (AML blasts [4]; [6]): 0.45
Mean Value of NRs, p-Stat1 (AML blasts [4]; [6]): 0.91
Mean Value of CRs, p-Stat1 (AML blasts [4]; [7]): 0.67
Mean Value of CRs, p-Stat3 (AML blasts [4]; [7]): 0.68
Mean Value of CRs, p-Stat5 (AML blasts [4]; [7]): 1.62
Mean Value of NRs, p-Stat1 (AML blasts [4]; [7]): 1.27
Mean Value of NRs, p-Stat3 (AML blasts [4]; [7]): 1.3
Mean Value of NRs, p-Stat5 (AML blasts [4]; [7]): 2.35
Mean Value of CRs (AML blasts [4]; read-out p-Stat1, metric Fold): 0.53
Mean Value of NRs (AML blasts [4]; read-out p-Stat1, metric Fold): 0.90
Mean Value of CRs (AML blasts [4]; [8]): 0.74
Mean Value of NRs (AML blasts [4]; [8]): 1.30
Mean Value of CRs, p-Stag (AML blasts [5]; [9]): −0.02
Mean Value of NRs, p-Stag (AML blasts [5]; [9]): 0.2
Mean Value of CRs, p-Stat1 Fold (AML blasts [5]; [10]): 1.35
Mean Value of CRs, p-Stat1 TotalPhospho (AML blasts [5]; [10]): 2.40
Mean Value of CRs, p-Stat3 TotalPhospho (AML blasts [5]; [10]): 1.60
Mean Value of CRs, p-Stat5 Fold (AML blasts [5]; [10]): 0.68
Mean Value of NRs, p-Stat1 Fold (AML blasts [5]; [10]): 2.96
Mean Value of NRs, p-Stat1 TotalPhospho (AML blasts [5]; [10]): 4.13
Mean Value of NRs, p-Stat3 TotalPhospho (AML blasts [5]; [10]): 2.71
Mean Value of NRs, p-Stat5 Fold (AML blasts [5]; [10]): 1.67
Mean Value of CRs, p-Stat3 Fold (AML blasts [5]; [11]): −0.04
Mean Value of CRs, p-Stat3 TotalPhospho (AML blasts [5]; [11]): 1.59
Mean Value of NRs, p-Stat3 Fold (AML blasts [5]; [11]): 0.24
Mean Value of NRs, p-Stat3 TotalPhospho (AML blasts [5]; [11]): 2.48
